Results on one compound are retold here after patent publication US6989263B1, “Method for identifying and using compounds that inactivate HIV-1 and other retroviruses by attacking highly conserved zinc fingers in the viral nucleocapsid protein” (The United States of America as represented by the …, priority 1994, dated 2006).

One test has as its system lymphocytes. The settings on record: cited from earlier work.
The test system of a further test is HIV-1MN. Briefly: Effect of NOBA on intact HIV-1MN (p24, zinc, TCIU of pelleted virus). The class given is cell-based. To be noted: for Zn: pelleted virus.
The target of another test is T1, HIV-1 (MN) p7NC (Human immunodeficiency virus type 1 group M subtype B, UniProt P05888).
T1 construct: The NC protein of HIV-1 (MN) p7NC was expressed in E. coli; made in house; host or cells: E. coli (vector pMAL-c)
As to the kind of experiment: Intrinsic Trp-37 fluorescence quenching of p7NC. The settings on record: Trp-37 fluorescence, zinc-reconstituted p7NC. The class given is biochemical. The source says:
The NC protein of HIV-1 (MN) p7NC was expressed in E. coli. The coding sequence for HIV-1(MN) p7NC was cloned and expressed using an inducible E. coli promoter in the vector pMAL-c (New England Biolabs Inc., Beverly, Mass.). The protein was expressed as a maltose-binding fusion protein and released by proteolysis with Factor Xa. HIV-1(MN) p7NC was purified by HPLC and characterized, including complete amino acid sequence analysis. p7NC was purified by high-pressure liquid chromatography (HPLC) and reconstituted with two equivalents of zinc to generate native protein as described (M. F. Summers et al., Protein Sci. 1, 563 (1992)).
Coordination of Zn^+2 enhances the intrinsic fluorescence of the single tryptophan (Trp-37) in the second zinc finger. […] The initial phase of the reaction with Cu^+2 (T1/2<20 seconds) gave 70% quenching of the original fluorescence, followed by a much slower phase (T1/2 ca. 6 minutes), resulting in a final limiting quenching of 85%.
The first quenching phase was a second order reaction, whereas the second phase was independent of protein concentration or oxidizing species.

Another test deals with proviral DNA synthesis. The settings on record: cited from earlier work.

As for `NC(=O)c1cccc(N=O)c1` [NOBA, 3-nitrosobenzamide], in the test with lymphocytes, the “bindings of virus to lymphocytes” value is on record as “did not influence”. Further, the virus inactivated result in the test on HIV-1MN (0.03 mM, ratio of NOBA to zinc fingers 50:1) is “greater than 99%”. Also, in the test on HIV-1MN (NOBA 0.03 mM, 2 hours), the “tissue culture infectious unit (TCIU/ml)” value is on record as 1.0 × 10^3 TCIU/ml. Besides, the Zn was found to be 0.21 µg/mL in the test on HIV-1MN (NOBA 0.03 mM, 2 hours); 0.21 µg/mL with HIV-1MN (NOBA 0.3 mM, 2 hours); 0.11 µg/mL in the test on HIV-1MN (NOBA 3.0 mM, 2 hours). Moreover, at HIV-1 (MN) p7NC, the “change in intrinsic fluorescence of p7NC on incubation” value was “rapid biphasic decrease in fluorescence”. In the test on proviral DNA synthesis, the “proviral DNA synthesis” value was “blocked”.
